{
  "source": "patent US20190094246A1",
  "about": "“DETECTION OF NEURODEGENERATIVE DISEASES” (AMONETA DIAGNOSTICS SAS, priority 2016, published 2019)",
  "key": {"[1]": {"system": "red blood cells (RBCs) from human subjects", "test": "Dose-dependent staining of RBCs, flow cytometry (MEDFI)", "format": "cell-based", "details": "0.03, 0.1, 0.3, 1 and 3 μM; RBCs 200 000 cells/mL of 3 human subjects; channel FL1 (Ex. 1), FL3 (Ex. 9)", "protocol": "The blood from an animal or a human subject is sampled in specific 5 mL tube, such as lithium-heparin tube. The blood is manually mixed by inversion before use.\nRed blood cells (RBCs) are obtained from whole blood after centrifugation at 200 g for 10 minutes at room temperature. RBCs pellet down and segregate from white blood cells, platelets and plasma. 5 μL of RBCs are pipetted, diluted 1000 times in 5 mL of Flow cytometry buffer (FACS buffer: 150 mM of NaCl; 1 mM of D-Glucose; 5 mM of Na2HPO4; 0.5 mM CaCl2) and either numbered by manual counting on disposable Malassez-like counting cell (X100 Cellule Fast Read, Fisher Scientific, Ref #11762712) with a microscope or counted with Flow count Fluorospheres (Beckman, Ref 7547053) so as to obtain a cell concentration of stock solution to be used in the test. […]\nFrom these different concentration stocks, the same quantity (4) of compounds at desired concentration to be tested is added to erythrocytes in each FACS vial to obtain the same % of DMSO (0.5% of DMSO) at the end. […] In all experiments, a control is performed with the final amount of compound solvent (DMSO alone, without test compound), in order to obtain the auto-fluorescence of the RBCs.\nThese fluorescences are detected by the gating of erythrocytes in a log FSC/log SSC plot. […]"}, "[2]": {"system": "RBCs from transgenic APP/PS1 mice versus age-matched Wild-Type mice", "test": "RBC staining in Alzheimer animal model, transgenic versus wild type", "format": "cell-based", "description": "Transgenic mice used in this study carry two mutations associated with early onset AD: mutant amyloid precursor protein (K670N and M671L) and mutant human presenilin 1 (M146V). These transgenic mice develop AD-related phenotype consisting in beta-amyloid peptide overproduction and formation of amyloid plaques in their brain."}},
  "data": [
    {"smiles": "COCCOCC#CB(C#CCOCCOC)n1c(C)cc(C)c1/C(=C1\\N=C(C)C=C1C)c1ccc(C(=O)NCCCn2cc(C3=C(c4cn(C)c5ccccc45)C(=O)NC3=O)c3ccccc32)cc1", "note": "[Ex. 9]", "values": [
      {"measurement": "staining of RBCs (index MEDFI)", "setting": "[1]", "value": "dose-dependent staining"},
      {"measurement": "discrimination between transgenic and wild type mice by RBC staining", "setting": "[2]; 1 μM, 5 transgenic mice and 6 age-matched wild type mice", "value": "excellent accuracy"},
      {"measurement": "discrimination between the transgenic mouse group and control mouse group by RBC staining", "setting": "[2]; concentration not given", "value": "good accuracy"}
    ]}
  ]
}
